These results are taken from PMC10165932, “Tripeptides conjugated with thiosemicarbazones: new inhibitors of tyrosinase for cosmeceutical use” (Journal of Enzyme Inhibition and Medicinal Chemistry, 2023).

The target of assay [1] is T1, mushroom tyrosinase (Agaricus bisporus, UniProt C7FF04). Kind of assay: Tyrosinase inhibition assay (diphenolase activity, L-DOPA substrate). Format: biochemical. Particulars: for IC50 / tyrosinase inhibition (in words): diphenolase activity; for IC50: L-DOPA 5 mM; for tyrosinase inhibition (in words): tested range of concentrations. Here is the method:
The tyrosinase enzymatic assay was performed according to the protocol described previously in our papers[46–48] using L-3,4-dihydroxyphenylalanine (L-DOPA) (Sigma-Aldrich, Germany) as a substrate. L-DOPA was dissolved in an aqueous 0.15 mM phosphoric(V) acid solution, preventing its oxidation. […] Tyrosinase powder (Sigma-Aldrich, Germany) was dissolved in the assay buffer to obtain a concentration of 50,000 units/mL. This stock solution was divided into 50 μL aliquots, each one containing 2500 units of tyrosinase, and stored at −80 °C. Shortly before the assay, one of the aliquots was reconstituted in the assay buffer up to 3000 μL. First, 10 μL of the diluted enzyme solution was preincubated with samples at various concentrations for 5 min at 25 °C. Afterwards, 20 μL of L-DOPA solution was added.
The screening of tyrosinase activity of the synthetic compounds was performed according to the procedure previously reported in our articles.[46–48] As reported in most of the research dealing with tyrosinase inhibition, we employed mushroom tyrosinase, due to the lack of information and the limited availability of human tyrosinase.[59]^,[60] All the compounds were evaluated at different concentrations after incubation with tyrosinase in solution for 5 min at room temperature. Afterwards, the substrate L-DOPA was added to start the enzymatic reaction. The absorbance provided by the colourful derivative, dopachrome, was measured every 5 s for 10 min in order to monitor the progress of the reaction over time. […] (1) % of ENZactivity=Sampleslope/ECslope×100

The test system of assay [2] is B16F0 murine melanoma cell line. Kind of assay: cells. Particulars: for % Of melanogenesis inhibition at a specific inhibitor concentration / inhibition at 10 µM / inhibition at 40 µM: B16F0, 48 h; for inhibition at 10 µM / inhibition at 40 µM: read-out: % Of melanogenesis inhibition at a specific inhibitor concentration. Format: cell-based. As for the experimental part: The effect of the synthetic compounds on melanogenesis inhibition was performed in B16F0 murine melanoma cell line. The mouse model of human skin is often employed in skin biology and cancer research due to numerous similarities.[62] B16F0 murine melanoma cell line shares most of the melanogenesis with human melanocytes. Therefore, it is the proper model for screening the effect of potential inhibitors on melanogenesis.[63]

The test system is the same in assay [3]. In words: cells. Format: cell-based. Conditions: 48 h. Here is the method: B16F0 murine melanoma cell line was cultured in DMEM (Biowest, Nuaillé, France) medium supplemented with 100 U/ml streptomycin (Sigma-Aldrich, Taufkirchen, Germany), 100 U/ml penicillin (Sigma-Aldrich, Taufkirchen, Germany), and 10% foetal bovine serum (Sigma-Aldrich, Taufkirchen, Germany). Cells were maintained in 5% CO2 at 37 °C. Cells viability was estimated by MTT colorimetric assay as described by Bellei et al.[51] B16 cells were seeded into 96-well plate (4 × 10^3 cells/well) and incubated in the presence of the investigated compounds at various concentrations (1000, 400, 100, 40, 10, 1, 0.1 μM) for 48 h. Kojic acid and DMSO were used as controls. MTT was added into wells (0.625 mg/ml, Sigma-Aldrich, Taufkirchen, Germany) for the last 4 h. Then lysing buffer was added to dissolve insoluble formazan. The absorbance was measured (λ = 570 nm) using Thermo Lab Multiscan RC microplate reader.

In assay [4] the target is T1, mushroom tyrosinase. Conditions: cited from earlier work; for tyrosinase inhibition (in words): previous paper.
The subject of assay [5] is B16F0 murine melanoma cell line. More on the design: method as in PMID 30248509. Conditions: previous paper; read-out: IC50 value for melanogenesis; cited from earlier work.
[6] abbreviates: Mus musculus, B16F0, n = 3, read-out: IC50 of melanin production.
Where [7] appears, read: Mus musculus, B16F0, MTT, n = 3, read-out: IC50 of cell proliferation.
The mark [8] stands for this setting: n = 3, read-out: The maximum percentage of inhibition reached for poor inhibitors.

Molecules are shown by their SMILES. Where “and” joins values, the source holds several entries; their conditions need not be identical. Identical values can stand only once. Like-named read-outs stand apart in the source and are kept apart here. Where a SMILES comes first, the peptide text is derived from it.

T1 sequence (C7FF04 1-392): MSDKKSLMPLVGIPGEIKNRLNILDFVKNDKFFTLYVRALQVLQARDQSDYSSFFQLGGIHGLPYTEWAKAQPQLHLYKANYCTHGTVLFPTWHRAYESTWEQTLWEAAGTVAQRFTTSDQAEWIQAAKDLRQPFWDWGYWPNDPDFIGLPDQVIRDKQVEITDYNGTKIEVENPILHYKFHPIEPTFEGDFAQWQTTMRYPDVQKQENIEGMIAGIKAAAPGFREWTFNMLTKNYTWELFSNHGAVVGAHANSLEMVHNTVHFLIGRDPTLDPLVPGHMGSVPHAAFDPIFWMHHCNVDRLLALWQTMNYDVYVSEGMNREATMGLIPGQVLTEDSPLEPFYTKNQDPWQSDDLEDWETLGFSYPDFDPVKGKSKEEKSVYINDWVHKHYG

As for `NC(=S)N/N=C/c1ccc(C(=O)N[C@@H](Cc2ccccc2)C(=O)N[C@@H](Cc2c[nH]c3ccccc23)C(=O)N[C@@H](Cc2ccc(O)cc2)C(=O)O)cc1` [Compound 9, TSC1-FWY-OH], the IC50 on mushroom tyrosinase [1] (n = 3) was 6.5 µM and 6.66 µM; in assay [2] (24 h), 151 µM; in assay [3], 77.1 µM. For the same compound, the entries for the “% Of melanogenesis inhibition at a specific inhibitor concentration” value (from here on “% Of melanogenesis inhibition”) in assay [2] (10 µM) and in assay [2] (40 µM) were 0% and 11%, respectively.

Take `NC(=S)N/N=C(\Cc1ccccc1)c1ccccc1` [thiosemicarbazone of (E)-2-phenylacetophenone]: the “tyrosinase inhibition (in words)” value at mushroom tyrosinase [4] was “did not inhibit tyrosinase at all”. Besides, the IC50 in assay [5] is below 2 µM.

Take `CC(=O)N[C@@H](Cc1ccccc1)C(=O)N[C@@H](Cc1c[nH]c2ccccc12)C(=O)N[C@@H](Cc1ccc(O)cc1)C(=O)O` [Compound 6, Ac-FWY-OH] (Ac-Phe-Trp-Tyr-OH): at mushroom tyrosinase [1], the “tyrosinase inhibition (in words)” value was “no significant inhibition was observed in the tested range of concentrations”. Also, the figures for the “% Of melanogenesis inhibition” value in assay [2] (10 µM) and in assay [2] (40 µM) were 0% and 4%, respectively. Further, the values for the IC50 in assay [2] (24 h) and in assay [3] were 141 µM and 81 µM, respectively.

As to `O=c1cc(CO)occ1O` [Kojic acid, reference compound], the inhibition at 10 µM in assay [2] (Mus musculus, 10 µM) came to 1%. In addition, the inhibition at 40 µM in assay [2] (Mus musculus, 40 µM) is 12%. In addition, the IC50 was 121 µM in assay [2] (setting [6]) and 162 µM in assay [3] (setting [7]).

As for `CC(=O)N[C@@H](Cc1ccccc1)C(=O)N[C@@H](Cc1ccc(O)cc1)C(=O)N[C@@H](Cc1ccc(O)cc1)C(=O)O` [Compound 5, Ac-FYY-OH] (Ac-Phe-Tyr-Tyr-OH), the “tyrosinase inhibition (in words)” value on mushroom tyrosinase [1] is recorded as “no significant inhibition was observed in the tested range of concentrations”. The entries for the “% Of melanogenesis inhibition” value in assay [2] (10 µM) and in assay [2] (40 µM) were 0% and 2%, respectively. The IC50 in assay [2] (24 h) came out at 175 µM; in assay [3], 96.6 µM.

Consider `CC(=O)N[C@@H](Cc1ccccc1)C(=O)N[C@@H](Cc1ccccc1)C(=O)N[C@@H](Cc1ccc(O)cc1)C(=O)O` [Compound 4, Ac-FFY-OH] (Ac-Phe-Phe-Tyr-OH), for which the “tyrosinase inhibition (in words)” value on mushroom tyrosinase [1] is reported as “no significant inhibition was observed in the tested range of concentrations”. Moreover, the results for the “% Of melanogenesis inhibition” value in assay [2] (10 µM) and in assay [2] (40 µM) were 1% and 3%, respectively. Besides, the IC50 in assay [2] (24 h) was 246 µM; in assay [3], 106 µM; on mushroom tyrosinase [4] (tyrosinase inhibition, read-out: IC50 found in the literature), 240 µM.

Take `CC(C(=O)N[C@@H](Cc1ccccc1)C(=O)N[C@@H](Cc1ccc(O)cc1)C(=O)N[C@@H](Cc1ccc(O)cc1)C(=O)O)c1cccc(C(=NNC(N)=S)c2ccccc2)c1` (mixture of isomers) [Compound 11, TSC2-FYY-OH]: the inhibition at 250 µM at mushroom tyrosinase [1] (setting [8]) came to 36%. Moreover, the “% Of melanogenesis inhibition” value in assay [2] (10 µM) and in assay [2] (40 µM) was 0% in each case. Moreover, the IC50 in assay [3] is 77.2 µM.

With `C/C(=N\NC(N)=S)c1ccc(C(=O)N[C@@H](Cc2ccccc2)C(=O)N[C@@H](Cc2c[nH]c3ccccc23)C(=O)N[C@@H](Cc2ccc(O)cc2)C(=O)O)cc1` [Compound 15, TSC3-FWY-OH], the IC50 worked out at 25.1 ± 2.5 µM against mushroom tyrosinase [1] (n = 3), 67.1 µM in assay [2] (24 h) and 67.5 µM in assay [3]. For the same compound, the “% Of melanogenesis inhibition” value in assay [2] (10 µM) was 5%; in assay [2] (40 µM), 20%.

For `CC(C(=O)N[C@@H](Cc1ccccc1)C(=O)N[C@@H](Cc1ccccc1)C(=O)N[C@@H](Cc1ccc(O)cc1)C(=O)O)c1cccc(C(=NNC(N)=S)c2ccccc2)c1` (mixture of isomers) [Compound 10, TSC2-FFY-OH], on mushroom tyrosinase [1] (setting [8]), the inhibition at 250 µM came to 45%. Besides, the “% Of melanogenesis inhibition” value in assay [2] (10 µM) was 0%; in assay [2] (40 µM), 4%. Also, the IC50 in assay [2] (24 h) amounted to 146 µM; in assay [3], 77.4 µM.

On to `NC(=S)NN=C(c1ccccc1)c1ccccc1` [thiosemicarbazone of benzophenone], for which the “tyrosinase inhibition (in words)” value at mushroom tyrosinase [4] is “efficient tyrosinase inhibitor”. In assay [5], the IC50 was below 2 µM.

Take `NC(=S)N/N=C/c1ccc(C(=O)N[C@@H](Cc2ccccc2)C(=O)N[C@@H](Cc2ccc(O)cc2)C(=O)N[C@@H](Cc2ccc(O)cc2)C(=O)O)cc1` [Compound 8, TSC1-FYY-OH]: the IC50 is 6.5 µM and 6.57 µM against mushroom tyrosinase [1] (n = 3); 158 µM in assay [2] (24 h); 99 µM in assay [3]. Besides, the “% Of melanogenesis inhibition” value in assay [2] (10 µM) is reported as 3%; in assay [2] (40 µM), 12%.

As for `CC(C(=O)O)c1cccc(/C(=N\NC(N)=S)c2ccccc2)c1` (centres unmarked) [Compound 2, thiosemicarbazone of ketoprofen], the inhibition at 150 µM at mushroom tyrosinase [1] (at 150 μM, n = 3, read-out: The maximum percentage of inhibition reached for poor inhibitors) was found to be 34%. For the same compound, the results for the IC50 (at mushroom tyrosinase [1] (n = 3); in assay [2] (setting [6]); in assay [3] (setting [7])) were above 150 µM, 19.8 µM and 71.5 µM, respectively. Besides, the “tyrosinase inhibition (in words)” value at mushroom tyrosinase [1] was “no significant inhibition towards tyrosinase”. Besides, in assay [2] (Mus musculus, 10 µM), the inhibition at 10 µM turned out to be 28%. For the same compound, the inhibition at 40 µM in assay [2] (Mus musculus, 40 µM) is 77%.

On to `C/C(=N\NC(N)=S)c1ccc(C(=O)N[C@@H](Cc2ccccc2)C(=O)N[C@@H](Cc2ccccc2)C(=O)N[C@@H](Cc2ccc(O)cc2)C(=O)O)cc1` [Compound 13, TSC3-FFY-OH], for which the inhibition at 250 µM at mushroom tyrosinase [1] (setting [8]) worked out at 62%. Besides, the IC50 against mushroom tyrosinase [1] (n = 3) was above 150 µM; in assay [2] (24 h), 162 µM; in assay [3], 49.8 µM. The results for the “% Of melanogenesis inhibition” value in assay [2] (10 µM) and in assay [2] (40 µM) were 0% and 3%, respectively.

For the compound `CC(C(=O)N[C@@H](Cc1ccccc1)C(=O)N[C@@H](Cc1c[nH]c2ccccc12)C(=O)N[C@@H](Cc1ccc(O)cc1)C(=O)O)c1cccc(C(=NNC(N)=S)c2ccccc2)c1` (mixture of isomers) [Compound 12, TSC2-FWY-OH], the inhibition at 250 µM at mushroom tyrosinase [1] (setting [8]) is 50%. The “% Of melanogenesis inhibition” value came to 0% in assay [2] (10 µM) and 3% in assay [2] (40 µM). In addition, the IC50 in assay [2] (24 h) worked out at 89.9 µM; in assay [3], 63.2 µM.

For the compound `C/C(=N\NC(N)=S)c1ccc(C(=O)N[C@@H](Cc2ccccc2)C(=O)N[C@@H](Cc2ccc(O)cc2)C(=O)N[C@@H](Cc2ccc(O)cc2)C(=O)O)cc1` [Compound 14, TSC3-FYY-OH], the results for the IC50 (against mushroom tyrosinase [1] (n = 3); in assay [2] (24 h); in assay [3]) were 26.1 ± 9 µM, 145 µM and 83.7 µM, respectively. Also, the “% Of melanogenesis inhibition” value in assay [2] (10 µM) is recorded as 0%; in assay [2] (40 µM), 4%.

As for `NC(=S)N/N=C/c1ccc(C(=O)N[C@@H](Cc2ccccc2)C(=O)N[C@@H](Cc2ccccc2)C(=O)N[C@@H](Cc2ccc(O)cc2)C(=O)O)cc1` [Compound 7, TSC1-FFY-OH], on mushroom tyrosinase [1] (setting [8]), the inhibition at 250 µM stood at 77%. The IC50 at mushroom tyrosinase [1] (n = 3) was above 150 µM; in assay [2] (24 h) it was 138 µM; in assay [3], 72.8 µM. Also, the “% Of melanogenesis inhibition” value in assay [2] (10 µM) was 1%; in assay [2] (40 µM) it was 10%.
